Earlier results, collected in US20090193593A1, “METHOD FOR REFRESHING FABRIC ARTICLES” (priority 2008, published 2009).
Structures can show the parent of a compound that is named as a salt.

SMILES	Solubility in water
OCCOc1ccccc1 [2-phenoxyethanol]	about 2.67%
[H]/N=C(\N/C(=N/[H])NCCCCCCNC(=N)NC(=N)Nc1ccc(Cl)cc1)Nc1ccc(Cl)cc1 [chlorhexidine digluconate salt, 1,1′-hexamethylene bis(5-(p-chlorophenyl)biguanide), reference compound]	about 70%

Next, values leading:

Solubility in water	SMILES
about 2%	OCCc1ccccc1 [2-phenylethanol]
about 4%	OCc1ccccc1 [benzyl alcohol]
about 1.8%	[H]/N=C(\N/C(=N/[H])NCCCCCCNC(=N)NC(=N)Nc1ccc(Cl)cc1)Nc1ccc(Cl)cc1 [chlorhexidine diacetate salt, 1,1′-hexamethylene bis(5-(p-chlorophenyl)biguanide), reference compound]
